Test results from US5340815A, “2-substituted-4,6-di-tertiary-butyl-5-hydroxy-1,3-pyrimidines useful as antiinflammatory agents” (Warner-Lambert Company, priority 1993, dated 1994).

What was measured:
5-Lipoxygenase = experiment: ARBL whole cell 5-lipoxygenase assay (LTB4 formation, RBL-1 cells); type: cell-based, rat; conditions: 10 μM
Method: (§1) ARBL/ARBC Whole Cell 5-Lipoxygenase and Cyclooxygenase Assays The rat basophilic leukemia cell line (RBL-1) was obtained from the American Type Culture Collection (Rockville, Md.). Radioimmunoassay (RIA) kits of LTB4 and PGF2α were obtained from Amersham (Arlington Heights, Ill.) and Seragen (Boston, Mass.), respectively. All tissue culture media were obtained from GIBCO (Grand Island, N.Y.). RBL-1 cells are grown in suspension culture in Eagle's minimum essential medium supplemented with 12% fetal bovine serum at 37° C. in an incubator supplied with air-5% carbon dioxide. Cells are harvested by centrifugation. They are washed with cold phosphate buffered saline pH 7.4 (PBS; NaCl, 7.1 g; Na2 HPO4, 1.15 g; KH2 PO4, 0.2 g; and KCl, 0.2 g/l). Cells are finally suspended in PBS containing 1.0 mM calcium at a density of 2×10^6 cells/mi. Cells are incubated with and without test agent (in DMSO) (1% DMSO is without effect on arachidonic acid metabolism) for ten minutes at room temperature. Calcium ionophore A23187 (5 μM) is added and cells are incubated for 7 minutes at 37° C. The reaction is stopped by chilling the tubes on ice for 10 minutes. Cells are separated by centrifugation and the supernatant is stored at -20° Aliquots (100 μL) are analyzed for LTB4 and PGF2α using radioimmunoassay kits as provided by the supplier. […]

Cyclooxygenase = experiment: ARBC whole cell cyclooxygenase assay (PGF2α formation, RBL-1 cells); type: cell-based, rat; conditions: 10 μM
Method: as §1

[1] = tested on: Carrageenan-Induced Rat Foot Paw Edema; experiment: Carrageenan-induced rat foot paw edema-2 (CFE-2) assay; type: in vivo; conditions: 30 mg/kg, methanesulfonate salt, dosed one hour before carrageenan; edema at five hours
Method: Carrageenan-Induced Rat Foot Paw Edema-2 (CFE-2) Assay: Protocol
Carrageenan solution (1% w/v) is prepared by dissolving 100 mg carrageenan (Marine Colloidal Div., Springfield, N.J.) in 10 mL of sterile saline (0.9%) solution (Travenol). The solution is vortexed for 30 to 45 minutes. Animals are dosed with compound one hour before carrageenan challenge. Foot paw edema is induced by injecting 0.10 ml of the 1% carrageenan subcutaneously into the plantar portion of the right hind paw of each rat under light anesthesia. Initial foot paw volume is measured immediately following carrageenan challenge using mercury plethysmography (Buxco Electronics). Edema is measured five hours after carrageenan. The difference between the five-hour and the initial paw volume is expressed as delta edema. The delta edema for each test group of animals is used to calculate the percent inhibition of edema achieved by-the compound at the test dose compared with the vehicle control group. The ID40 (the dose at which swelling is inhibited by 40%) is calculated by probit analysis for the dose at which 40 percent inhibition occurs.

| Structure (SMILES) | ARBL, % inhibition (LTB4 formation) (5-Lipoxygenase) [%] | ARBC, % inhibition (PGF2α formation) (Cyclooxygenase) [%] | % Inhibition of Edema [1] [%] | ARBL, inhibition class (LTB4 formation) (5-Lipoxygenase) |
| --- | --- | --- | --- | --- |
| CC(C)(C)c1nc(/C=C/c2cccnc2)nc(C(C)(C)C)c1O [Example 1, [E]-4,6-Bis(1,1-dimethylethyl)-2-[[2-(3-pyridinyl)]-ethenyl]-5-pyrimidinol] | 100 | 85 | 45 | – |
| Cc1cc(C=Cc2nc(C(C)(C)C)c(O)c(C(C)(C)C)n2)sn1 [Example 3] | – | 60 | – | N* (<40% inhibition at 10 μM) |
